Values after ≈ are worked out from the molar mass of the structure shown. Where two headings read alike, the source gives them in different places.
Legend:
[1] = system: Mycobacterium tuberculosis H37Rv (ATCC27294); assay: microbe, parasite or virus in culture; format: cell-based
[2] = system: mouse macrophage RAW 264.7 cells
[3] = in vitro; settings: mouse
[4] = system: M. tuberculosis H37Rv nutrient-starved culture; format: cell-based, Mycobacterium tuberculosis
[5] = Mycobacterium tuberculosis, ATCC27294|H37RV
[6] = RAW 264.7 cells, 50 μg/mL, 48 hr, MTT

SMILES	MIC ([1]; Mtb H37Rv, repeated in Table 2)	MIC [1, 5]	% cell inhibition at 50 μg/mL [2, 6]	IC50 [3]	also measured
O=[N+]([O-])c1ccc(S(=O)(=O)N2CCN(C(c3ccccc3)c3ccccc3)CC2)c([N+](=O)[O-])c1 [7a, 1-Benzhydryl-4-((2,4-dinitrophenyl)sulfonyl)piperazine]	1.56 µg/mL (≈ 3.23 µM)	1.56 µg/mL (≈ 3.23 µM)	57.6%	> 50 µg/mL	–
O=C(CCCNS(=O)(=O)c1ccc([N+](=O)[O-])cc1[N+](=O)[O-])N1CCN(C(c2ccc(F)cc2)c2ccc(F)cc2)CC1 [7aa, N-(4-(4-(Bis(4-fluorophenyl)methyl)piperazin-1-yl)-4-oxobutyl)-2,4-dinitrobenzene Sulfonamide]	0.78 µg/mL (≈ 1.29 µM)	0.78 µg/mL (≈ 1.29 µM)	59.2%	> 50 µg/mL	–
O=[N+]([O-])c1ccccc1S(=O)(=O)N1CCN(C(c2ccccc2)c2ccccc2)CC1 [7b, 1-Benzhydryl-4-((2-nitrophenyl)sulfonyl)piperazine]	–	> 25 µg/mL	–	–	–
O=[N+]([O-])c1ccc(S(=O)(=O)N2CCN(C(c3ccccc3)c3ccccc3)CC2)cc1 [7c, 1-Benzhydryl-4-((4-nitrophenyl)sulfonyl)piperazine]	–	> 25 µg/mL	–	–	–
O=[N+]([O-])c1ccc(S(=O)(=O)N2CCN(C(c3ccc(F)cc3)c3ccc(F)cc3)CC2)c([N+](=O)[O-])c1 [7d, 1-(Bis(4-fluorophenyl)methyl)-4-((2,4-dinitrophenyl)sulfonyl)piperazine]	–	> 25 µg/mL	–	–	–
O=[N+]([O-])c1ccccc1S(=O)(=O)N1CCN(C(c2ccc(F)cc2)c2ccc(F)cc2)CC1 [7e, 1-(Bis(4-fluorophenyl)methyl)-4-((2-nitrophenyl)sulfonyl)piperazine]	–	> 25 µg/mL	–	–	–
O=[N+]([O-])c1ccc(S(=O)(=O)N2CCN(C(c3ccc(F)cc3)c3ccc(F)cc3)CC2)cc1 [7f, 1-(Bis(4-fluorophenyl)methyl)-4-((4-nitrophenyl)sulfonyl)piperazine]	–	> 25 µg/mL	–	–	–
O=C(CNS(=O)(=O)c1ccc([N+](=O)[O-])cc1[N+](=O)[O-])N1CCN(C(c2ccccc2)c2ccccc2)CC1 [7g, N-(2-(4-Benzhydrylpiperazin-1-yl)-2-oxoethyl)-2,4-dinitrobenzenesulfonamide]	–	12.5 µg/mL (≈ 23.2 µM)	–	–	–
O=C(CCNS(=O)(=O)c1ccc([N+](=O)[O-])cc1[N+](=O)[O-])N1CCN(C(c2ccccc2)c2ccccc2)CC1 [7k, N-(3-(4-Benzhydrylpiperazin-1-yl)-3-oxopropyl)-2,4-dinitrobenzenesulfonamide]	0.78 µg/mL (≈ 1.41 µM)	0.78 µg/mL (≈ 1.41 µM)	61.4%	> 50 µg/mL	–
O=C(CCNS(=O)(=O)c1ccc([N+](=O)[O-])cc1[N+](=O)[O-])N1CCN(C(c2ccc(F)cc2)c2ccc(F)cc2)CC1 [7l, N-(3-(4-(Bis(4-fluorophenyl)methyl)piperazin-1-yl)-3-oxopropyl)-2,4-dinitrobenzene Sulfonamide]	0.78 µg/mL (≈ 1.32 µM)	0.78 µg/mL (≈ 1.32 µM)	60.2%	> 50 µg/mL	–
O=C(C1CCN(S(=O)(=O)c2ccc([N+](=O)[O-])cc2[N+](=O)[O-])CC1)N1CCN(C(c2ccccc2)c2ccccc2)CC1 [7o, (4-Benzhydrylpiperazin-1-yl) (1-((2,4-dinitrophenyl)sulfonyl)piperidin-4-yl)methanone]	0.78 µg/mL (≈ 1.31 µM)	0.78 µg/mL (≈ 1.31 µM)	57.2%	> 50 µg/mL	–
O=C(C1CCN(S(=O)(=O)c2ccccc2[N+](=O)[O-])CC1)N1CCN(C(c2ccccc2)c2ccccc2)CC1 [7p, (4-Benzhydrylpiperazin-1-yl) (1-((2-Nitrophenyl)sulfonyl)piperidin-4-yl)methanone]	–	> 25 µg/mL	–	–	–
O=C(C1CCN(S(=O)(=O)c2ccc([N+](=O)[O-])cc2)CC1)N1CCN(C(c2ccccc2)c2ccccc2)CC1 [7q, (4-Benzhydrylpiperazin-1-yl) (1-((4-Nitrophenyl)sulfonyl)piperidin-4-yl)methanone]	–	> 25 µg/mL	–	–	–
O=C(C1CCN(S(=O)(=O)c2ccc([N+](=O)[O-])cc2[N+](=O)[O-])CC1)N1CCN(C(c2ccc(F)cc2)c2ccc(F)cc2)CC1 [7r, (4-(Bis(4-fluorophenyl)methyl)piperazin-1-yl) (1-((2,4-Nitrophenyl)sulfonyl)piperidin-4-yl)methanone]	–	–	–	–	MIC [1]: 1.56 µg/mL (≈ 2.48 µM); nutrient starvation (log reduction) [4]: 2.2 folds; % cell inhibition at 50 μg/mL [2]: 57.2%; IC50 approximation [2]: >50 µg/mL
O=C(C1CCCN(S(=O)(=O)c2ccc([N+](=O)[O-])cc2[N+](=O)[O-])C1)N1CCN(C(c2ccccc2)c2ccccc2)CC1 (stereo not shown) [7s, (4-Benzhydrylpiperazin-1-yl) (1-((2,4-Dinitrophenyl)sulfonyl)piperidin-3-yl)methanone]	0.78 µg/mL (≈ 1.31 µM)	0.78 µg/mL (≈ 1.31 µM)	59.2%	> 50 µg/mL	–
O=C(C1CCCN(S(=O)(=O)c2ccccc2[N+](=O)[O-])C1)N1CCN(C(c2ccccc2)c2ccccc2)CC1 (stereo not shown) [7t, (4-Benzhydrylpiperazin-1-yl) (1-((2-Nitrophenyl)sulfonyl)piperidin-3-yl)methanone]	–	> 25 µg/mL	–	–	–
O=C(C1CCCN(S(=O)(=O)c2ccc([N+](=O)[O-])cc2)C1)N1CCN(C(c2ccccc2)c2ccccc2)CC1 (stereo not shown) [7u, (4-Benzhydrylpiperazin-1-yl) (1-((4-Nitrophenyl)sulfonyl)piperidin-3-yl)methanone]	–	> 25 µg/mL	–	–	–
O=C(C1CCCN(S(=O)(=O)c2ccc([N+](=O)[O-])cc2[N+](=O)[O-])C1)N1CCN(C(c2ccc(F)cc2)c2ccc(F)cc2)CC1 (stereo not shown) [7v, (4-(Bis(4-fluorophenyl)methyl)piperazin-1-yl) (1-((2,4-Dinitrophenyl)sulfonyl)piperidin-3-yl)methanone]	0.78 µg/mL (≈ 1.24 µM)	0.78 µg/mL (≈ 1.24 µM)	55.7%	> 50 µg/mL	–
O=C(C1CCN(S(=O)(=O)c2ccc([N+](=O)[O-])cc2[N+](=O)[O-])C1)N1CCN(C(c2ccccc2)c2ccccc2)CC1 (stereo not shown) [7y, (4-Benzhydrylpiperazin-1-yl) (1-((2,4-Dinitrophenyl)sulfonyl)pyrrolidin-3-yl)methanone]	0.78 µg/mL (≈ 1.35 µM)	0.78 µg/mL (≈ 1.35 µM)	59.6%	> 50 µg/mL	–
CC[C@@H](CO)NCCN[C@@H](CC)CO [Ethambutol, reference compound]	–	1.56 µg/mL (≈ 7.64 µM)	–	–	–
NNC(=O)c1ccncc1 [Isoniazid, reference compound]	0.05 µg/mL (≈ 0.365 µM)	–	97%	> 25 µg/mL	–
CO[C@H]1/C=C/O[C@@]2(C)Oc3c(C)c(O)c4c(O)c(c(/C=N/N5CCN(C)CC5)c(O)c4c3C2=O)NC(=O)/C(C)=C\C=C\[C@H](C)[C@H](O)[C@@H](C)[C@@H](O)[C@@H](C)[C@H](OC(C)=O)[C@@H]1C [Rifampicin, reference compound]	0.1 µg/mL (≈ 0.122 µM)	0.1 µg/mL (≈ 0.122 µM)	90%	> 25 µg/mL	MIC ([1]; Mtb H37Rv strain, triplicate, Table 1 and text): 0.10 µg/mL (≈ 0.122 µM)
